According to PubChem BioAssay AID1845200 (Molecular Pharmacology Branch, DTP, NCI, 2023):

Tested on: ASPS-1 complex tumor spheroids, viability
Experiment: Anticancer human tumor ASPS-1 cell line growth inhibition;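 also: spheroids exposed to agents for 7 days after 3 days of growth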;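 as to viability, T/C: 100% = DMSO vehicle treated spheroids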
Details: for IC50: curve of first compound; for viability, T/C: stronger effect = lower value
Outline: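 Complex spheroids of malignant cells with endothelial cells and mesenchymal stem cells; agents alone or combined, from near clinical Cmax (or 10 microM if unknown) down in half-log steps, 0.25% DMSO final.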

[1] = second compound 1 µM, first compound 0.0316 µM
[2] = second compound 1 µM, first compound 0.1 µM
[3] = second compound 1 µM, first compound 0.316 µM
[4] = second compound 1 µM, first compound 1 µM
[5] = second compound 1 µM, first compound 3.16 µM
[6] = second compound 1 µM, first compound 10 µM
[7] = second compound 3.16 µM, first compound 0.0316 µM
[8] = second compound 3.16 µM, first compound 0.1 µM
[9] = second compound 3.16 µM, first compound 0.316 µM
[10] = second compound 3.16 µM, first compound 1 µM
[11] = second compound 3.16 µM, first compound 3.16 µM
[12] = second compound 3.16 µM, first compound 10 µM
[13] = second compound 10 µM, first compound 0.0316 µM
[14] = second compound 10 µM, first compound 0.1 µM
[15] = second compound 10 µM, first compound 0.316 µM
[16] = second compound 10 µM, first compound 1 µM
[17] = second compound 10 µM, first compound 3.16 µM
[18] = second compound 10 µM, first compound 10 µM
[19] = second compound 31.6 µM, first compound 0.0316 µM
[20] = second compound 31.6 µM, first compound 0.1 µM
[21] = second compound 31.6 µM, first compound 0.316 µM
[22] = second compound 31.6 µM, first compound 1 µM
[23] = second compound 31.6 µM, first compound 3.16 µM
[24] = second compound 31.6 µM, first compound 10 µM
[25] = second compound 100 µM, first compound 0.0316 µM
[26] = second compound 100 µM, first compound 0.1 µM
[27] = second compound 100 µM, first compound 0.316 µM
[28] = second compound 100 µM, first compound 1 µM
[29] = second compound 100 µM, first compound 3.16 µM
[30] = second compound 100 µM, first compound 10 µM

## CC(C)n1c(=O)n(C)c2cnc3cc(F)c(-c4ccc(OCCCN5CCCCC5)nc4)cc3c21 + Cn1nnc2c(C(N)=O)ncn2c1=O
Second compound 1 µM
  IC50: 8.4 µM
Second compound 3.16 µM
  IC50: 8.14 µM
Second compound 10 µM
  IC50: 2.56 µM
Second compound 31.6 µM
  IC50: 1.58 µM
Second compound 100 µM
  IC50: 0.386 µM
[1]
  viability, T/C: 106%
[2]
  viability, T/C: 104%
[3]
  viability, T/C: 102%
[4]
  viability, T/C: 102%
[5]
  viability, T/C: 93.4%
[6]
  viability, T/C: 42.1%
[7]
  viability, T/C: 102%
[8]
  viability, T/C: 102%
[9]
  viability, T/C: 103%
[10]
  viability, T/C: 88.7%
[11]
  viability, T/C: 82.4%
[12]
  viability, T/C: 43%
[13]
  viability, T/C: 91.4%
[14]
  viability, T/C: 79.8%
[15]
  viability, T/C: 83.5%
[16]
  viability, T/C: 86.7%
[17]
  viability, T/C: 42%
[18]
  viability, T/C: 25.4%
[19]
  viability, T/C: 81.1%
[20]
  viability, T/C: 78.1%
[21]
  viability, T/C: 77.7%
[22]
  viability, T/C: 54.7%
[23]
  viability, T/C: 39.3%
[24]
  viability, T/C: 19.9%
[25]
  viability, T/C: 74.5%
[26]
  viability, T/C: 60.5%
[27]
  viability, T/C: 56.1%
[28]
  viability, T/C: 41.2%
[29]
  viability, T/C: 24.4%
[30]
  viability, T/C: 20.2%

## CC1COCCN1c1cc(-c2ccnn2C)c2ccnc(-c3ccn[nH]3)c2n1 (stereo not given) + Cn1nnc2c(C(N)=O)ncn2c1=O
Second compound 1 µM
  IC50: 0.224 µM
Second compound 3.16 µM
  IC50: < 0.0316 µM
Second compound 10 µM
  IC50: < 0.0316 µM
Second compound 31.6 µM
  IC50: < 0.0316 µM
Second compound 100 µM
  IC50: < 0.0316 µM
[1]
  viability, T/C: 72.3%
[2]
  viability, T/C: 59.2%
[3]
  viability, T/C: 46.6%
[4]
  viability, T/C: 41.1%
[5]
  viability, T/C: 46.1%
[6]
  viability, T/C: 43.9%
[7]
  viability, T/C: 38.5%
[8]
  viability, T/C: 44%
[9]
  viability, T/C: 42.2%
[10]
  viability, T/C: 41.6%
[11]
  viability, T/C: 43%
[12]
  viability, T/C: 50.2%
[13]
  viability, T/C: 42.4%
[14]
  viability, T/C: 39.4%
[15]
  viability, T/C: 35.5%
[16]
  viability, T/C: 38.1%
[17]
  viability, T/C: 42.5%
[18]
  viability, T/C: 52.4%
[19]
  viability, T/C: 37.6%
[20]
  viability, T/C: 31.1%
[21]
  viability, T/C: 31.7%
[22]
  viability, T/C: 32.6%
[23]
  viability, T/C: 42.2%
[24]
  viability, T/C: 48.3%
[25]
  viability, T/C: 24.9%
[26]
  viability, T/C: 22.5%
[27]
  viability, T/C: 20.4%
[28]
  viability, T/C: 23.6%
[29]
  viability, T/C: 29.6%
[30]
  viability, T/C: 42%

## COc1ccc([C@@H](O)c2cc(-c3ncnc4cc(N5CCOCC5)ccc34)c(F)cc2Cl)nn1 + Cn1nnc2c(C(N)=O)ncn2c1=O
Second compound 1 µM
  IC50: 9.75 µM
Second compound 3.16 µM
  IC50: > 10 µM
Second compound 10 µM
  IC50: 6.72 µM
Second compound 31.6 µM
  IC50: 2.61 µM
Second compound 100 µM
  IC50: 1.73 µM
[1]
  viability, T/C: 107%
[2]
  viability, T/C: 103%
[3]
  viability, T/C: 106%
[4]
  viability, T/C: 101%
[5]
  viability, T/C: 92%
[6]
  viability, T/C: 48.4%
[7]
  viability, T/C: 103%
[8]
  viability, T/C: 102%
[9]
  viability, T/C: 105%
[10]
  viability, T/C: 99.8%
[11]
  viability, T/C: 75.7%
[12]
  viability, T/C: 53.1%
[13]
  viability, T/C: 92%
[14]
  viability, T/C: 94.9%
[15]
  viability, T/C: 99%
[16]
  viability, T/C: 79.2%
[17]
  viability, T/C: 69.8%
[18]
  viability, T/C: 40.3%
[19]
  viability, T/C: 82.7%
[20]
  viability, T/C: 83.7%
[21]
  viability, T/C: 77.2%
[22]
  viability, T/C: 67.7%
[23]
  viability, T/C: 46.2%
[24]
  viability, T/C: 33.8%
[25]
  viability, T/C: 82.1%
[26]
  viability, T/C: 67.6%
[27]
  viability, T/C: 64.7%
[28]
  viability, T/C: 57.1%
[29]
  viability, T/C: 44.5%
[30]
  viability, T/C: 33.2%
